These results are taken from patent US20090197279A1, “MICROTUBULE SYNTHESIS AS A BIOMARKER” (KINEMED, INC., priority 2005, published 2009).

Each structure is given as a SMILES string. “Also recorded” adds a separate entry of the source.

For one assay, the system named is C57BL/6JBomTac mice. The assay can be described thus: Contextual fear conditioning (CFC), freezing behavior. Type of assay: in vivo, mouse. The source says: FIG. 10 depicts microtubule/tubulin exchange during hippocampus-dependent contextual memory. (A) Protocol for measurement of microtubule/tubulin exchange during contextual fear conditioning (CFC). Tubulin dimers and microtubules subsets were labeled to plateau through continuous ^2H2O labeling, starting one day before CFC training. Labeling was continued throughout CFC training (Day 2) and the contextual conditioning test until mice were euthanized (Day 3). Vehicle or nocodazole treated-mice were injected 4 hours before CFC training, consisting of three pairings of conditioned and unconditioned stimuli inside an observation chamber, as described in Example 7 below. […] Microtubule subpopulations were fractionated as described below, and the percentage of newly synthesized tubulin was quantified by GC/MS (mean±SD, n=3). […]
Fear conditioning experiments were done as previously described (Bourtchouladze, R. et al. Different training procedures recruit either one or two critical periods for contextual memory consolidation, each of which requires protein synthesis and PKA. Learn. Mem. 5, 365-374 (1998)). […] On day later, contextual conditioning was assessed for 3 consecutive minutes in the chamber in which the mice were trained (CFC test). […]

The subject of assay [1] is hippocampal tubulin dimers and microtubule subsets. The assay can be described thus: 2H label incorporation into hippocampal tubulin dimers and microtubule subsets during CFC (GC/MS). Type of assay: in vivo, mouse. The settings on record: conditioned mice, hippocampus. The source says:
FIG. 10 depicts microtubule/tubulin exchange during hippocampus-dependent contextual memory. (A) Protocol for measurement of microtubule/tubulin exchange during contextual fear conditioning (CFC). Tubulin dimers and microtubules subsets were labeled to plateau through continuous ^2H2O labeling, starting one day before CFC training. Labeling was continued throughout CFC training (Day 2) and the contextual conditioning test until mice were euthanized (Day 3). Vehicle or nocodazole treated-mice were injected 4 hours before CFC training, consisting of three pairings of conditioned and unconditioned stimuli inside an observation chamber, as described in Example 7 below. (B) CFC experiments were conducted in groups of naïve, vehicle- (50% cyclodextrin) and nocodazole-treated (0.2 mg/kg) mice (mean±SD, n=8 per each group), respectively. […] (C-E) ^2H label incorporation into hippocampal tubulin dimers and microtubule subsets was compared at sacrifice in the indicated experimental groups. Microtubule subpopulations were fractionated as described below, and the percentage of newly synthesized tubulin was quantified by GC/MS (mean±SD, n=3). (C) and (D) In vehicle-CFC trained mice, the increased freezing response corresponded with an increase in ^2H labeling of MAP2- and CS-associated MTs, compared to naïve control animals (§p<0.01 and §§p<0.05; two-way ANOVA). […] In (C-E), bars represent % new tubulin (mean±SD, n=3).
Tubulin was purified using minor modifications of protocols described previously (Fanara, P., Oback, B., Ashman, K., Podtelejnikov, A., Brandt, R. Identification of MINUS, a small polypeptide that functions as a microtubule nucleation suppressor. EMBO J. 18, 565-577 (1999); Fanara, P. et al. In vivo measurement of microtubule dynamics using stable isotope labeling with heavy water. Effect of taxanes. J. Biol. Chem. 279, 49940-49947 (2004). Briefly, cultured neurons were gently scraped off culture plates, washed in phosphate-buffered saline (PBS), and homogenized in microtubule-stabilizing buffer. For purification ex vivo, mice were anesthetized with isoflurane and euthanized by cervical dislocation. Brains were rapidly removed and washed in microtubule-stabilizing buffer (MSB); hippocampi were dissected and gently homogenized in MSB. […] The relative abundance of tubulin in each preparation (Tubulin dimers and TAU5-bound, MAP2-bound, and unbound microtubule fractions) was quantified by Western blot, and tubulin from these fractions was further purified by ion exchange and size exclusion chromatography, as previously described (Fanara, P. et al. In vivo measurement of microtubule dynamics using stable isotope labeling with heavy water. Effect of taxanes. J. Biol. Chem. 279, 49940-49947 (2004)). […]

As for `COC(=O)Nc1nc2ccc(C(=O)c3cccs3)cc2[nH]1` [nocodazole], the “freezing behavior (% of freezing to context), CFC test” value with C57BL/6JBomTac mice (nocodazole 0.2 mg/kg i.p. 4 hours before CFC training, test one day after training, vs vehicle-treated mice) is reported as “significant reduction; also recorded: significantly lower”. The “contextual fear responses measured immediately after training” value in the assay with C57BL/6JBomTac mice (nocodazole vs vehicle, data not shown) was “similar”. The “label incorporation into tau-associated microtubules” value in assay [1] (nocodazole 0.2 mg/kg vs basal levels in naïve and conditioned animals) is listed as “reduced; also recorded: significant disassembly”. In addition, the “2H incorporation into free tubulin dimers” value in assay [1] (nocodazole 0.2 mg/kg vs vehicle-treated controls) is reported as “increase”. In addition, the “label incorporation into MAP2-associated microtubules” value in assay [1] (nocodazole 0.2 mg/kg vs vehicle) is “reversed; also recorded: significant disassembly”. In addition, the “reduction of label incorporation into CS microtubules” value in assay [1] (nocodazole 0.2 mg/kg) is reported as “not statistically significant”.
